Measurements reported in PubChem BioAssay (NCI).
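These data come from cells grown in 96-well plates and exposed to compound for 48 hours at five concentrations. GI50 marks 50% less growth. At the TGI there is no net growth.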

Experiments:
Assay in all cases: NCI anticancer screen, dose series, 48 h
UACC-257 melanoma = system: UACC-257 melanoma
BT-549 breast = system: BT-549 breast
OVCAR-5 ovarian = system: OVCAR-5 ovarian
SF-268 CNS = system: SF-268 CNS
KM12 colon = system: KM12 colon
NCI/ADR-RES ovarian = system: NCI/ADR-RES ovarian
K-562 leukemia = system: K-562 leukemia
MALME-3M melanoma = system: MALME-3M melanoma
MDA-MB-435 = system: MDA-MB-435
A498 renal = system: A498 renal

Compound	TGI (UACC-257 melanoma) [µM]	TGI (BT-549 breast) [µM]	TGI (OVCAR-5 ovarian) [µM]	TGI (SF-268 CNS) [µM]	TGI (KM12 colon) [µM]	TGI (NCI/ADR-RES ovarian) [µM]	TGI (K-562 leukemia) [µM]	TGI (MALME-3M melanoma) [µM]	TGI (MDA-MB-435) [µM]	TGI (A498 renal) [µM]	GI50 (MDA-MB-435) [nM]	GI50 (UACC-257 melanoma) [nM]	GI50 (BT-549 breast) [nM]	GI50 (OVCAR-5 ovarian) [nM]	GI50 (SF-268 CNS) [µM]	GI50 (A498 renal) [nM]	GI50 (KM12 colon) [µM]	GI50 (NCI/ADR-RES ovarian) [nM]	GI50 (MALME-3M melanoma) [nM]
S=C1NC2=C(CSC/C2=C\c2ccccc2)C(c2ccccc2)N1 (configuration not stated)	58.8	78.7	> 100	> 100	> 100	> 100	> 100	99.4	–	–	–	–	–	–	–	–	–	–	–
CC(C)C1=C(O)C2=C(C(=O)C1=O)C1(C)CCCC(C)(C)C1C(O)C2OC=O (configuration not stated)	21.6	21.5	30.9	24.4	24.7	–	> 100	23.7	11.8	35.1	–	–	–	–	–	–	–	–	–
CC1(C)OC2COC3([C@@H]4OC(C)(C)O[C@@H]4CO)OC(C)(C)OC3C2O1 (some centres not stated)	> 100	> 100	> 100	–	> 100	> 100	> 100	–	> 100	> 100	–	–	–	–	–	–	–	–	–
Clc1nncc2sc(-c3ccccc3)nc12	56.7	> 53.2	> 100	49	> 72.8	69.1	> 100	70.6	49.6	> 100	–	–	–	–	–	–	–	–	–
O=S1SC(=S)C2C=CC=CC21 (configuration not stated)	> 100	> 100	> 100	> 100	> 100	> 100	> 100	> 100	> 100	> 100	–	–	–	–	–	–	–	–	–
CSc1nc2c(ncn2C2OC(CO)C(O)C(O)C2O)c(=O)[nH]1 (configuration not stated)	> 100	–	> 100	> 100	> 100	> 100	> 100	> 100	–	> 100	–	–	–	–	–	–	–	–	–
C=C1C(=O)C23C(O)CC4C5(C)CCCC4(C(O)OC5)C2C(OC(C)=O)CC1C3O (configuration not stated)	–	–	31.9	32.4	22.1	–	11.7	28.8	–	–	–	–	–	–	–	–	–	–	–
O=C1CS(=O)(=O)C(c2cccc(Oc3ccccc3)c2)N1c1cc(Cl)ccc1Cl (configuration not stated)	55.9	41.3	> 100	52.8	39.4	77.8	> 100	> 100	25.9	–	–	–	–	–	–	–	–	–	–
CCN1C(=O)C(=C/C=C/c2ccc(N(CC)CC)cc2)C(=O)N(CC)C1=S	> 100	> 100	> 100	> 100	> 100	> 100	> 100	–	> 100	–	–	–	–	–	–	–	–	–	–
COc1ccc(N2C(=O)C3c4[nH]c5ccccc5c4C4CCCCCCCCCC4C3C2=O)cc1 (configuration not stated)	–	–	> 10	> 10	> 10	> 10	> 10	> 10	> 10	> 10	–	–	–	–	–	–	–	–	–
O=C(NN1C(=O)CSC1c1cccc(F)c1)c1ccncc1 (configuration not stated)	> 100	–	> 100	> 100	> 100	–	> 100	> 100	–	> 100	–	–	–	–	–	–	–	–	–
CON(C)C(=O)C1CCCO1 (configuration not stated)	> 100	–	> 100	> 100	> 100	> 100	> 100	–	> 100	> 100	–	–	–	–	–	–	–	–	–
O=C1C=CC(=O)C(CNc2ccc(C(=O)OCc3ccccc3)cc2)=C1	25.2	9.31	29.5	21.8	23.4	23.5	> 100	7.22	18.7	23.5	–	–	–	–	–	–	–	–	–
C=CC(=O)N1C/C(=C\c2ccc(Cl)cc2)C(=O)/C(=C/c2ccc(Cl)cc2)C1	3.65	1.09	2.1	0.617	0.866	9.41	–	3.84	0.785	1.25	–	–	–	–	–	–	–	–	–
CCOC(=O)NC(Nc1c(F)c(F)c(F)c(F)c1F)(C(F)(F)F)C(F)(F)F	> 100	> 100	> 100	> 100	> 100	> 100	> 100	> 100	> 100	> 100	–	–	–	–	–	–	–	–	–
O=[N+]([O-])c1cccc2c(N=Nc3ccc4ccccc4c3O)c(O)cc(S(=O)(=O)O)c12	> 100	> 100	> 100	> 100	> 100	> 100	> 100	80.6	> 100	–	–	–	–	–	–	–	–	–	–
COc1ccc(C2c3cc4c(cc3OC(NCCO)C2C)OCO4)cc1 (configuration not stated)	72.4	59	> 100	72.6	> 100	–	58.8	47.7	59.7	48.8	–	–	–	–	–	–	–	–	–
Cc1cc(C)c(/C=C(\C(=C/c2c(C)cc(C)cc2C)[N+](=O)[O-])[N+](=O)[O-])c(C)c1	> 100	> 100	> 100	–	> 100	–	> 100	–	> 100	–	–	–	–	–	–	–	–	–	–
CCOP(=O)(OCC)OC1CC(n2cc(C)c(=O)n(C)c2=O)OC1CO[Si](C)(C)C(C)(C)C (configuration not stated)	> 100	> 100	> 100	> 100	> 100	> 100	> 100	> 100	> 100	–	–	–	–	–	–	–	–	–	–
Cc1cc(C)nc(NS(=O)(=O)c2ccc(NC(=O)c3cccc4c(NNc5ccc(S(=O)(=O)N=C(N)N)cc5)c5ccccc5nc34)cc2)n1	> 50	> 50	–	> 50	> 50	> 50	> 50	> 50	> 50	> 50	–	–	–	–	–	–	–	–	–
O=C(O)CCCCCCCCC(=O)O	> 500	–	> 500	> 500	> 500	> 500	> 500	> 500	–	> 23.2	–	–	–	–	–	–	–	–	–
COc1ccc(-n2nc(C)c3c(Nc4ccc(NC(=O)Nc5ccc(Cl)c(C(F)(F)F)c5)cc4)ncnc32)cc1	4.66	6.34	4.71	7.99	3.96	6.22	–	3.35	4.17	5.67	1920	1880	2080	1830	2.61	2090	1.48	1780	1540
O=[N+]([O-])c1ccc2c(c1)c(N=NC(=S)Nc1ccc(Cl)cc1)c(O)n2CN1CCOCC1	26.5	–	–	16.5	24	5.9	–	18.8	19.2	–	–	–	–	–	–	–	–	–	–

Compound	TGI (UACC-257 melanoma) [µM]	TGI (BT-549 breast) [µM]	TGI (OVCAR-5 ovarian) [µM]	TGI (SF-268 CNS) [µM]	TGI (KM12 colon) [µM]	TGI (NCI/ADR-RES ovarian) [µM]	TGI (K-562 leukemia) [µM]	TGI (MALME-3M melanoma) [µM]	TGI (MDA-MB-435) [µM]	TGI (A498 renal) [µM]	GI50 (MDA-MB-435) [nM]	GI50 (UACC-257 melanoma) [nM]	GI50 (BT-549 breast) [nM]	GI50 (OVCAR-5 ovarian) [nM]	GI50 (SF-268 CNS) [µM]	GI50 (A498 renal) [nM]	GI50 (KM12 colon) [µM]	GI50 (NCI/ADR-RES ovarian) [nM]	GI50 (MALME-3M melanoma) [nM]
CC1(C)CC(C#Cc2ccccc2)CC(C)(C)N1O	33	–	44.2	83.1	36.1	73.8	> 100	32.9	44.6	–	–	–	–	–	–	–	–	–	–
O=S1(=O)C[C@@H](NCc2ccccc2)[C@H](NCc2ccccc2)C1	> 100	> 100	> 100	> 100	> 100	> 100	> 100	> 100	> 100	–	–	–	–	–	–	–	–	–	–
CN1N=C(c2ccncc2)OC1c1ccccc1F (configuration not stated)	–	–	> 100	> 100	> 100	> 100	> 100	–	> 100	> 100	–	–	–	–	–	–	–	–	–
COc1cc(C2c3cc4c(cc3[C@@H](Nc3ccc5c(c3)OCO5)C3COC(=O)[C@H]23)OCO4)cc(OC)c1O (some centres not stated)	8.38	–	> 59.4	30	6.91	41.6	9.74	10.1	–	1.84	–	–	–	–	–	–	–	–	–
c1ccc2c(c1)CCCC/C2=N/OCC1CO1 (configuration not stated)	> 100	–	–	> 100	> 100	–	> 100	> 100	–	> 100	–	–	–	–	–	–	–	–	–
Cc1cc(NS(=O)(=O)c2ccc(NC(NC(=O)C(C(F)(F)F)C(F)(F)F)(C(F)(F)F)C(F)(F)F)cc2)no1	> 100	> 100	> 100	> 100	> 100	> 100	> 100	> 100	> 100	–	–	–	–	–	–	–	–	–	–
O=C1c2cccc(O)c2C(=O)c2c(O)cc(CO)cc21	> 100	–	> 100	> 100	> 100	–	–	83.6	–	> 100	–	–	–	–	–	–	–	–	–
C[C@H]1OC(=O)[C@@H]2N=NN(Cc3ccccc3)[C@H]12	–	–	> 100	> 100	> 100	> 100	> 100	> 100	> 100	> 100	–	–	–	–	–	–	–	–	–
CN1CCN(C2=C(Cl)C3(OCCS3)C(F)(F)C2(F)F)CC1 (configuration not stated)	> 100	–	> 100	> 100	–	> 100	> 100	> 100	> 100	> 100	–	–	–	–	–	–	–	–	–
CN(C)c1cccc2c1C(=O)C=CC21c2ccc(N(C)C)c3c(N(C)C)ccc(c23)C(c2ccccc2)C1c1ccccc1 (configuration not stated)	27.2	–	81.7	53.9	31.3	58.9	> 100	35.6	30.2	22	–	–	–	–	–	–	–	–	–
CC#CC(O)(C(=O)OC1CC(C)N(C)C(C)(C)C1)C1CCCC1 (configuration not stated)	> 100	> 100	> 100	> 100	> 100	93.6	> 100	> 100	> 100	–	–	–	–	–	–	–	–	–	–
COc1nc2c(N3CCCC3)nc(N3CCNCC3)nc2nc1NCc1ccccc1	3.35	4.01	8.04	5	4.68	17.1	3.58	3.55	2.95	–	–	–	–	–	–	–	–	–	–
O=C(CC(C(=O)c1ccco1)c1ccco1)c1ccco1 (configuration not stated)	> 100	–	> 100	> 100	> 100	> 100	> 100	–	> 100	> 100	–	–	–	–	–	–	–	–	–
C/C(=C\CO)CC/C=C(\C)CNc1ccc([N+](=O)[O-])cc1	76.2	37.5	> 100	> 100	64.2	64.5	66.5	34.6	84.9	–	–	–	–	–	–	–	–	–	–
Nc1ccc(-c2nn3c(COc4ccc(Cl)cc4)nnc3s2)cc1	> 100	–	> 100	> 100	> 100	> 100	> 100	> 100	> 100	–	–	–	–	–	46.8	–	99.5	–	–
COc1ccc(NC(C)c2ccncc2)cc1 (configuration not stated)	–	> 100	> 100	> 100	> 100	> 100	> 100	> 100	> 100	> 100	–	–	–	–	–	–	–	–	–
COC(=O)[C@H](Cc1ccccc1)NC(=O)N(CCC#N)CCN(C(=O)N[C@@H](Cc1ccccc1)C(=O)OC)c1ccccc1	37.5	> 100	> 100	45.6	> 100	> 100	–	–	39.2	39.8	–	–	–	–	–	–	–	–	–
COc1ccc(/C=N/n2c(C)nc3c(sc(=S)n3-c3ccccc3)c2=O)cc1	> 100	–	> 100	> 100	> 100	–	81.2	–	–	> 100	–	–	–	–	–	–	–	–	–
O=C1OC(c2ccccc2)N(C(=O)c2ccccc2)C1Cc1ccc(OCc2ccccc2)cc1 (configuration not stated)	–	–	> 100	> 100	–	> 100	> 100	–	> 100	33.5	–	–	–	–	–	–	–	–	–
O=C1C(C(O)(C(F)(F)F)C(F)(F)F)CCC1C(O)(C(F)(F)F)C(F)(F)F (configuration not stated)	34.8	–	> 100	> 100	37.3	32.6	> 100	17.9	> 67.6	6.23	–	–	–	–	–	–	–	–	–
CC(=O)Oc1c(C)c(C)c2c(c1C)CCC(C)(CC(=O)OCCCCCCCCCCC[P+](c1ccccc1)(c1ccccc1)c1ccccc1)O2 (configuration not stated)	0.78	0.99	–	–	–	–	–	–	1.2	2	310	268	314	–	–	385	–	–	–
COc1cc(/C=C2\CCC(C)/C(=C\c3cc(OC)c(OC)c(OC)c3)C2=O)cc(OC)c1OC (configuration not stated)	21.3	3.53	14.2	34.4	8.46	–	6.26	–	> 100	6.06	–	–	–	–	–	–	–	–	–
CCN(CCCl)c1cc(CN(C)C)cc(NC(=O)c2ccc(C(=O)Nc3cccc(CN(C)C)c3)cc2)c1	3.67	–	93.2	63.1	3.69	> 100	1.42	2.81	0.665	7.33	–	–	–	–	–	–	–	–	–
